From ChEMBL document CHEMBL4804286, “3-amino-4-(4-(4 (dimethylcarbamoyl) phenyl)-1,4-diazepan-1-yl) thieno [2,3-b] pyridine-2-carboxamide for use in cancer therapy and formulations comprising the same” (2020)
Where “and” joins values, the source holds several entries; their conditions need not be identical. Equal entries are not always repeated.

Columns and labels:
[1] = molecular target: Serine/threonine-protein kinase MRCK alpha (Homo sapiens) (UniProt Q5VT25); test: Inhibition of human MRCKA assessed as percent of control at 2000 nM by KINOMEscan assay relative to control; parameters: scale not given: the % may be the effect or the level left
[2] = molecular target: cAMP-dependent protein kinase catalytic subunit PRKX (Homo sapiens) (UniProt P51817); test: Inhibition of human PRKX assessed as percent of control at 2000 nM by KINOMEscan assay relative to control; parameters: scale not given: the % may be the effect or the level left
[3] = molecular target: Eukaryotic translation initiation factor 2-alpha kinase 1 (Homo sapiens) (UniProt Q9BQI3); test: Inhibition of human EIF2AK1 assessed as percent of control at 2000 nM by KINOMEscan assay relative to control; parameters: scale not given: the % may be the effect or the level left
[4] = molecular target: Bone morphogenetic protein receptor type-1A (Homo sapiens) (UniProt P36894); test: Inhibition of human BMPR1A assessed as percent of control at 2000 nM by KINOMEscan assay relative to control; parameters: scale not given: the % may be the effect or the level left
[5] = molecular target: Wee1-like protein kinase 2 (Homo sapiens) (UniProt P0C1S8); test: Inhibition of human WEE2 assessed as percent of control at 2000 nM by KINOMEscan assay relative to control; parameters: scale not given: the % may be the effect or the level left
[6] = system: Receptor-type tyrosine-protein kinase FLT3 (Homo sapiens), P36888 [N841I]; test: Inhibition of human FLT3 N841I mutant assessed as percent of control at 2000 nM by KINOMEscan assay relative to control; parameters: scale not given: the % may be the effect or the level left
[7] = molecular target: Cyclin-dependent kinase 19 (Homo sapiens) (UniProt Q9BWU1); conditions: INHIBITOR, dose 2000.0 nM
Description: Inhibition of human CDK19 at 2000 nM by KINOMEscan assay

[8] = system: Hepatocyte growth factor receptor (Homo sapiens), P08581 [M1250T]; test: Inhibition of human MET M1250T mutant assessed as percent of control at 2000 nM by KINOMEscan assay relative to control; parameters: scale not given: the % may be the effect or the level left
[9] = molecular target: cGMP-dependent protein kinase 2 (Homo sapiens) (UniProt Q13237); test: Inhibition of human PRKG2 assessed as percent of control at 2000 nM by KINOMEscan assay relative to control; parameters: scale not given: the % may be the effect or the level left
[10] = molecular target: Calcium/calmodulin-dependent protein kinase type 1G (Homo sapiens) (UniProt Q96NX5); test: Inhibition of human CAMK1G assessed as percent of control at 2000 nM by KINOMEscan assay relative to control; parameters: scale not given: the % may be the effect or the level left
[11] = molecular target: Inhibitor of nuclear factor kappa-B kinase subunit beta (Homo sapiens) (UniProt O14920); test: Inhibition of human IKK-beta assessed as percent of control at 2000 nM by KINOMEscan assay relative to control; parameters: scale not given: the % may be the effect or the level left
[12] = molecular target: cGMP-dependent protein kinase 1 (Homo sapiens) (UniProt Q13976); test: Inhibition of human PRKG1 assessed as percent of control at 2000 nM by KINOMEscan assay relative to control; parameters: scale not given: the % may be the effect or the level left
[13] = molecular target: Phosphatidylinositol 4-phosphate 3-kinase C2 domain-containing subunit beta (Homo sapiens) (UniProt O00750); test: Inhibition of human PIK3C2B assessed as percent of control at 2000 nM by KINOMEscan assay relative to control; parameters: scale not given: the % may be the effect or the level left
[14] = molecular target: Mitogen-activated protein kinase kinase kinase 2 (Homo sapiens) (UniProt Q9Y2U5); test: Inhibition of human MAP3K2 assessed as percent of control at 2000 nM by KINOMEscan assay relative to control; parameters: scale not given: the % may be the effect or the level left
[15] = molecular target: Glycogen synthase kinase-3 beta (Homo sapiens) (UniProt P49841); test: Inhibition of human GSK3B assessed as percent of control at 2000 nM by KINOMEscan assay relative to control; parameters: scale not given: the % may be the effect or the level left
[16] = molecular target: Inhibitor of nuclear factor kappa-B kinase subunit alpha (Homo sapiens) (UniProt O15111); test: Inhibition of human IKK-alpha assessed as percent of control at 2000 nM by KINOMEscan assay relative to control; parameters: scale not given: the % may be the effect or the level left
[17] = molecular target: Dual specificity protein kinase CLK1 (Homo sapiens) (UniProt P49759); test: Inhibition of human CLK1 assessed as percent of control at 2000 nM by KINOMEscan assay relative to control; parameters: scale not given: the % may be the effect or the level left
[18] = molecular target: Insulin-like growth factor 1 receptor (Homo sapiens) (UniProt P08069); test: Inhibition of human IGF1R assessed as percent of control at 2000 nM by KINOMEscan assay relative to control; parameters: scale not given: the % may be the effect or the level left
[19] = molecular target: Phosphatidylinositol 4,5-bisphosphate 3-kinase catalytic subunit gamma isoform (Homo sapiens) (UniProt P48736); test: Inhibition of human PIK3CG assessed as percent of control at 2000 nM by KINOMEscan assay relative to control; parameters: scale not given: the % may be the effect or the level left
[20] = molecular target: Wee1-like protein kinase (Homo sapiens) (UniProt P30291); test: Inhibition of human WEE1 assessed as percent of control at 2000 nM by KINOMEscan assay relative to control; parameters: scale not given: the % may be the effect or the level left
[21] = molecular target: NUAK family SNF1-like kinase 2 (Homo sapiens) (UniProt Q9H093); test: Inhibition of human SNARK assessed as percent of control at 2000 nM by KINOMEscan assay relative to control; parameters: scale not given: the % may be the effect or the level left
[22] = molecular target: Casein kinase I isoform alpha (Homo sapiens) (UniProt P48729); conditions: INHIBITOR, dose 2000.0 nM
Description: Inhibition of human CSNK1A1 at 2000 nM by KINOMEscan assay

[23] = system: Receptor-type tyrosine-protein kinase FLT3 (Homo sapiens), P36888 [UNDEFINED MUTATION]; test: Inhibition of human FLT3 ITD/D835V double mutant assessed as percent of control at 2000 nM by KINOMEscan assay relative to control; parameters: scale not given: the % may be the effect or the level left; conditions: INHIBITOR
[24] = molecular target: Dual specificity protein kinase CLK4 (Homo sapiens) (UniProt Q9HAZ1); test: Inhibition of human CLK4 assessed as percent of control at 2000 nM by KINOMEscan assay relative to control; parameters: scale not given: the % may be the effect or the level left
[25] = molecular target: Cyclin-dependent kinase 4 (Homo sapiens) (UniProt P11802); test: Inhibition of human CDK4 assessed as percent of control at 2000 nM by KINOMEscan assay relative to control; parameters: scale not given: the % may be the effect or the level left
[26] = molecular target: LIM domain kinase 1 (Homo sapiens) (UniProt P53667); test: Inhibition of human LIMK1 assessed as percent of control at 2000 nM by KINOMEscan assay relative to control; parameters: scale not given: the % may be the effect or the level left
[27] = molecular target: Ephrin type-A receptor 5 (Homo sapiens) (UniProt P54756); test: Inhibition of human EPHA5 assessed as percent of control at 2000 nM by KINOMEscan assay relative to control; parameters: scale not given: the % may be the effect or the level left
[28] = molecular target: Mitogen-activated protein kinase 11 (Homo sapiens) (UniProt Q15759); test: Inhibition of human p38-beta assessed as percent of control at 2000 nM by KINOMEscan assay relative to control; parameters: scale not given: the % may be the effect or the level left
[29] = molecular target: Casein kinase I isoform alpha (Homo sapiens) (UniProt P48729); test: Inhibition of human CSNK1A1 assessed as percent of control at 2000 nM by KINOMEscan assay relative to control; parameters: scale not given: the % may be the effect or the level left; conditions: INHIBITOR
[30] = molecular target: Fibroblast growth factor receptor 2 (Homo sapiens) (UniProt P21802); test: Inhibition of human FGFR2 assessed as percent of control at 2000 nM by KINOMEscan assay relative to control; parameters: scale not given: the % may be the effect or the level left
[31] = molecular target: SNF-related serine/threonine-protein kinase (Homo sapiens) (UniProt Q9NRH2); test: Inhibition of human SNRK assessed as percent of control at 2000 nM by KINOMEscan assay relative to control; parameters: scale not given: the % may be the effect or the level left
Sequence of SNF-related serine/threonine-protein kinase (Homo sapiens) (Q9NRH2 whole entry): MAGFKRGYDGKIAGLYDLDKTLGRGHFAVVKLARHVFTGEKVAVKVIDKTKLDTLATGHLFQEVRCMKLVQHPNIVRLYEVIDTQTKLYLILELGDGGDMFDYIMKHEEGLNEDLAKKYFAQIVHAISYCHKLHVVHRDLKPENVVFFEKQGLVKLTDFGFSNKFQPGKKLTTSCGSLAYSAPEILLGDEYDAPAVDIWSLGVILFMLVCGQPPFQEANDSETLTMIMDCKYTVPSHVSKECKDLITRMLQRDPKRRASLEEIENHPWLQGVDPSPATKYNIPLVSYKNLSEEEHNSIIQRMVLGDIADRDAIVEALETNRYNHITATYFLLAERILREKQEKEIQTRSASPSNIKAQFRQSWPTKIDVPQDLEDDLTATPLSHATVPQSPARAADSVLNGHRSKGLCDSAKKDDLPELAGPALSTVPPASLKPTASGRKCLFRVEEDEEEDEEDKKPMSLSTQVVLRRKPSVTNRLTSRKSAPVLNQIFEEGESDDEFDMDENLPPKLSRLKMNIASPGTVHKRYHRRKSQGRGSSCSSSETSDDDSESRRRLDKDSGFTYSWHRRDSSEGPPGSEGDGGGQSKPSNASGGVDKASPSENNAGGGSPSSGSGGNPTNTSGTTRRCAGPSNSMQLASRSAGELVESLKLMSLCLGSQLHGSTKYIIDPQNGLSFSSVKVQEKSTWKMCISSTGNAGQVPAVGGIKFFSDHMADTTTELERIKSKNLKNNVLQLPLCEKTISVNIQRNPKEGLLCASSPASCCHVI

Sequence of Casein kinase I isoform alpha (Homo sapiens) (P48729 2-337 limits assumed): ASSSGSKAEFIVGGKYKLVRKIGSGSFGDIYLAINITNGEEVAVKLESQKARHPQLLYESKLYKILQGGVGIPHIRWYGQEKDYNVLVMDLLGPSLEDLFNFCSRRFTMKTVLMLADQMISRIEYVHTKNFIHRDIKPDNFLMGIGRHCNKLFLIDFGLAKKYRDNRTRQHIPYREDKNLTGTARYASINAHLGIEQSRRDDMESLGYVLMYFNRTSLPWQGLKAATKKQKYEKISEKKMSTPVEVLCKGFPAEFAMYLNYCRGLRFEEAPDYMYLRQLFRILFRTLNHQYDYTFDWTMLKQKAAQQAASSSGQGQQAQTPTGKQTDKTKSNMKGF
Sequence of cGMP-dependent protein kinase 1 (Homo sapiens) (Q13976 whole entry, the tested form may be a part): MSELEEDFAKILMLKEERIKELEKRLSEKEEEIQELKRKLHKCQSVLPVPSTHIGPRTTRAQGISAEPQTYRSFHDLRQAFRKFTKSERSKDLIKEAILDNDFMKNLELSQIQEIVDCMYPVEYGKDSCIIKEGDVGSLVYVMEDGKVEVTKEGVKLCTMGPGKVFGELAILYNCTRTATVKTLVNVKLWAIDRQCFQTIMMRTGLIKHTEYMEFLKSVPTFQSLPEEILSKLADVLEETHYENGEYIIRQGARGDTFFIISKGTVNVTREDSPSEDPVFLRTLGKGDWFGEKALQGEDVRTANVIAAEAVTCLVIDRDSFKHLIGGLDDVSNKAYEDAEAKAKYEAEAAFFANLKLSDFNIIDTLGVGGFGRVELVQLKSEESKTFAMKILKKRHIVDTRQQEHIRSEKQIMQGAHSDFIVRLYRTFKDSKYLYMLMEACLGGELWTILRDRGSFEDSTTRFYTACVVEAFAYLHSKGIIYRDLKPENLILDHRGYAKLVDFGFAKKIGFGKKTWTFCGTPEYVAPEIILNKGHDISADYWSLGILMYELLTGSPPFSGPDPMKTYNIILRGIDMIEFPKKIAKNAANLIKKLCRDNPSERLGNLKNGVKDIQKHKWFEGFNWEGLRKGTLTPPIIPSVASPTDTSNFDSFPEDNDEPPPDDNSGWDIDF
Sequence of NUAK family SNF1-like kinase 2 (Homo sapiens) (Q9H093 whole entry, canonical isoform): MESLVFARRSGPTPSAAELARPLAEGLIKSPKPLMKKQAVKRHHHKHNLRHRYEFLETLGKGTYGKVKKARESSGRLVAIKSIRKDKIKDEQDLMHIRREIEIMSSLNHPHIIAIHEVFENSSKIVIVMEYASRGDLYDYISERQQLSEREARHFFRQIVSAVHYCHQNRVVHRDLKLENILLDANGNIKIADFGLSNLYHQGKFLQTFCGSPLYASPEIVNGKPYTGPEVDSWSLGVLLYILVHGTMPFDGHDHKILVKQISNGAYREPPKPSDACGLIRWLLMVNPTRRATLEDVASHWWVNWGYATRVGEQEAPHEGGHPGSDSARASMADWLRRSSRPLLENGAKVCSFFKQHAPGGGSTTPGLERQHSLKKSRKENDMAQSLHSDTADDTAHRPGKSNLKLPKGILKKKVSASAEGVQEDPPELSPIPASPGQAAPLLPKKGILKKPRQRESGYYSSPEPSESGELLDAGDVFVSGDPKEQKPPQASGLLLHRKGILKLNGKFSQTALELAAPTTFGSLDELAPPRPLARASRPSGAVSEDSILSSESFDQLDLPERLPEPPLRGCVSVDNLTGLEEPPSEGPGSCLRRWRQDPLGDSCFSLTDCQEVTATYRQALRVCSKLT
Sequence of Calcium/calmodulin-dependent protein kinase type 1G (Homo sapiens) (Q96NX5 whole entry): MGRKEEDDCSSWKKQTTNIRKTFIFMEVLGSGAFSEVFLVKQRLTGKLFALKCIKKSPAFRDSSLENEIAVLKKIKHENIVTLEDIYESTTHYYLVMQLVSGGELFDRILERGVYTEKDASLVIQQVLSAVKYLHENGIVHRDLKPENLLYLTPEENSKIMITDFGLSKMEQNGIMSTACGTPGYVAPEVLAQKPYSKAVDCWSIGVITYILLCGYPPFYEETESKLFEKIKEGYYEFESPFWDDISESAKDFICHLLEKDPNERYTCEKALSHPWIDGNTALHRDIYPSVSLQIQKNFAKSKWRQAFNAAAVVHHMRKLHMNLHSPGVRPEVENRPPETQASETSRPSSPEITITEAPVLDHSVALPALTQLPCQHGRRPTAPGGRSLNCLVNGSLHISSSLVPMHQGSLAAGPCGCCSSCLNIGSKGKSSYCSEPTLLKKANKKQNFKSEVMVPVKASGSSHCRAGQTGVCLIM
Sequence of Wee1-like protein kinase (Homo sapiens) (P30291 whole entry, looked up): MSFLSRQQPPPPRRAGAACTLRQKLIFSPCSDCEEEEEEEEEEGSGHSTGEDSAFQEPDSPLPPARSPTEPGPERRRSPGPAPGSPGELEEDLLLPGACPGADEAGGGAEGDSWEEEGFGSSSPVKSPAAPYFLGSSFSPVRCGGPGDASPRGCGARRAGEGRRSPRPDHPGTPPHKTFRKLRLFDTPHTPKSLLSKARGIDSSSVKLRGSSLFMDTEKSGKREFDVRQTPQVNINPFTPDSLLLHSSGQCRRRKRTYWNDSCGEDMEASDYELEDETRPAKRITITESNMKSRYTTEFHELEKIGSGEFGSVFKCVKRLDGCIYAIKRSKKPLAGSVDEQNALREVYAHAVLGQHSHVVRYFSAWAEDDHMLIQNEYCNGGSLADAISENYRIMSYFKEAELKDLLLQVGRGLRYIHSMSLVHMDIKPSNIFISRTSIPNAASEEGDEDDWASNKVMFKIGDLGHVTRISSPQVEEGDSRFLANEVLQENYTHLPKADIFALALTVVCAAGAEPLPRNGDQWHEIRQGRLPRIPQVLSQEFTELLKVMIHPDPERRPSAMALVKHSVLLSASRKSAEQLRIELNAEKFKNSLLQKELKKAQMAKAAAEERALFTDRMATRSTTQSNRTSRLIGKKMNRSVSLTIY
Sequence of cAMP-dependent protein kinase catalytic subunit PRKX (Homo sapiens) (P51817 whole entry): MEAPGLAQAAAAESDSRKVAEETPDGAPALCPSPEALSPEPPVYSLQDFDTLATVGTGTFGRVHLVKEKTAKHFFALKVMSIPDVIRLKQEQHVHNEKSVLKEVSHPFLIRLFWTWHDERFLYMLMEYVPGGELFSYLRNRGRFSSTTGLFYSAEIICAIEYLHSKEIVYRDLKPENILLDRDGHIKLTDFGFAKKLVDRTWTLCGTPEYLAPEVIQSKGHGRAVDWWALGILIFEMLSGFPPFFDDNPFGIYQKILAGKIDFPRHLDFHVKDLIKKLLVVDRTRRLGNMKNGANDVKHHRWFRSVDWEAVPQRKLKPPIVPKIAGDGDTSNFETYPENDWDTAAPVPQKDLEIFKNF
Sequence of Mitogen-activated protein kinase kinase kinase 2 (Homo sapiens) (Q9Y2U5 whole entry): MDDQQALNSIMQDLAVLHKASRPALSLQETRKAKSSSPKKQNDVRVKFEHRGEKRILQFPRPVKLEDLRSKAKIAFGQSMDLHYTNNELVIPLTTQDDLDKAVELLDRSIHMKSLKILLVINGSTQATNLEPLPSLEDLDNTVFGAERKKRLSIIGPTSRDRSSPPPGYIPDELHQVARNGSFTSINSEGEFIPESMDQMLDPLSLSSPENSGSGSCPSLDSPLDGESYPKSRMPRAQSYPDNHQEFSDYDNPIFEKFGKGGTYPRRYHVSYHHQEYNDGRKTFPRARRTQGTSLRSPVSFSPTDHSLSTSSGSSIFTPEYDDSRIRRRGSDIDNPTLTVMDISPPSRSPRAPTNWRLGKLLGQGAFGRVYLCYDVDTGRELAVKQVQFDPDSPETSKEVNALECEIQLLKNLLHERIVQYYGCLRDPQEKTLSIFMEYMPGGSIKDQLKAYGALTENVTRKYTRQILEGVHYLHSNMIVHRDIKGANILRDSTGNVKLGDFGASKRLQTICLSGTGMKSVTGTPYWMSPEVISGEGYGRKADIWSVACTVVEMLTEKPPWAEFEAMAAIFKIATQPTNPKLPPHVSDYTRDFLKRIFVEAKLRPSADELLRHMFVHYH
Sequence of Glycogen synthase kinase-3 beta (Homo sapiens) (P49841 whole entry, looked up): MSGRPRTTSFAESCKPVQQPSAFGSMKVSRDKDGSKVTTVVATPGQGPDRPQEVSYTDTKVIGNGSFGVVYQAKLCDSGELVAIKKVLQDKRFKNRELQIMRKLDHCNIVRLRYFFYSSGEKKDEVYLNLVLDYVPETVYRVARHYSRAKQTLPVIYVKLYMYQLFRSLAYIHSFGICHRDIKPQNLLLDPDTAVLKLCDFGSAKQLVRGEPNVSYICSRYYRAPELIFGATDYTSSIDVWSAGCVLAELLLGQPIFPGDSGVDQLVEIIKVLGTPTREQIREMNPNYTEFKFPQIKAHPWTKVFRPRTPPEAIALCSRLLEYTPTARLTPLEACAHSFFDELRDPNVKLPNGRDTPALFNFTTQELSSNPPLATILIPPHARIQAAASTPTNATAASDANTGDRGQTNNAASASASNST

CN(C)C(=O)c1ccc(N2CCCN(c3ccnc4sc(C(N)=O)c(N)c34)CC2)cc1
Activity [1]: 94% and 100% | Activity [2]: 94% and 95% | Activity [3]: 93% and 78% | Activity [4]: 100% | Activity [5]: 97% and 88% | Activity [6]: 90% and 86% | inhibition [7]: > 65% | Activity [8]: 100% and 96% | Activity [9]: 98% and 90% | Activity [10]: 99% | Activity [11]: 89% and 71% | Activity [12]: 88% and 100% | Activity [13]: 89% and 87% | Activity [14]: 98% and 86% | Activity [15]: 79% and 77% | Activity [16]: 77% and 90% | Activity [17]: 88% and 68% | Activity [18]: 92% and 91% | Activity [19]: 79% and 76% | Activity [20]: 100% and 88% | Activity [21]: 100% and 78% | inhibition [22]: > 65% | Activity [23]: 41% and 34% | Activity [24]: 59% and 66% | Activity [25]: 73% and 71% | Activity [26]: 100% | Activity [27]: 89% and 96% | Activity [28]: 100% and 97% | Activity [29]: 33% and 12% | Activity [30]: 99% and 98% | Activity [31]: 100% and 75%
